{
  "source": "patent US20240254086A1",
  "about": "“(HETERO)ARYLAMIDE COMPOUND AND PEST CONTROL AGENT” (Nippon Soda Co., Ltd., priority 2021, published 2024)",
  "format_in_all_cases": "in vivo",
  "key": {"Tetranychus urticae": {"test_system": "Tetranychus urticae", "experiment": "Efficacy test against Tetranychus urticae (spray on green beans)", "conditions": "240 h, 125 ppm by mass, sprayed on green beans, adult females, 10 days after spraying, 25° C., read-out: insecticical rate against Tetranychus urticae (mortality of adults)", "experimental": "(§1) 5 parts by mass of the compound of the present invention, 93.6 parts by mass of dimethylformamide, and 1.4 parts by mass of polyoxyethylene alkylaryl ether were mixed and dissolved to prepare an emulsion (I) containing 5% of an active ingredient.\nSeedlings of green beans were grown in 3-inch pots, and 8 adult female Tetranychus urticae from Aomori Prefecture were inoculated onto the first leaves. […] The diluent solution was sprayed on the green beans. The green beans were then placed in a thermostatic chamber with a temperature of 25° C. and humidity of 65%. Mortality of the adult […] was investigated after 10 days had passed from the spraying. The test was repeated twice."}, "Tetranychus kanzawai": {"test_system": "Tetranychus kanzawai", "experiment": "Efficacy test against Tetranychus kanzawai (spray on kidney bean)", "conditions": "240 h, 125 ppm by mass, sprayed on kidney bean plants, adult females, 10 days after spraying, 25° C., read-out: insecticical rate against Tetranychus kanzawai (mortality of adults)", "excerpt": "as §1\nThe primary leaves of Kidney bean plants were inoculated with 5 adult female Tetranychus kanzawai from Okayama Prefecture. […] This drug was sprayed on the Kidney bean plants and air-dried. The kidney bean seedlings were then placed in a thermostatic chamber with a temperature of 25° C. and humidity of 65%. Mortality of the adult […] was investigated after 10 days had passed from the spraying. The test was repeated twice."}, "Mythimna separata": {"test_system": "Mythimna separata", "experiment": "Efficacy test against Mythimna separata (maize leaf dip)", "conditions": "125 ppm by mass, maize leaf pieces immersed 30 seconds, second-instar larvae, 6 days after release, 25° C.", "excerpt": "as §1\nMaize leaf pieces were immersed in the diluent solution for 30 seconds. These maize leaf pieces were placed in a petri dish, and five second-instar larvae of Mythimna separata were released to prepare an emulsion-treated section.\nSimilarly, the solvent control solution was diluted with water at the same ratio as that of the emulsion (I), and maize leaf pieces were immersed therein for 30 seconds. These maize leaf pieces were placed in a petri dish, and five second-instar larvae of Mythimna separata were released to prepare a solvent control section.\nThe petri dishes were left to stand in a thermostatic chamber at a temperature of 25° C. and a humidity of 60% during the test period. Mortality was evaluated at a time of passage of 6 days from the release of the insects, and the insecticidal rate in the emulsion-treated section was calculated, based on the following expression. At the same time, the food consumptions in the emulsion-treated section and the solvent control section were measured. The test was repeated twice.\nInsecticidal rate (%)=(Number of dead insects/Number of test insects)×100"}},
  "data": [
    {"molecule": "CCSCCC(CC)(CC)CNC(=O)c1cc(C#N)c(-c2ccc(C(F)(F)F)cc2)cc1C(F)(F)F", "note": "[C-7, 2-Cyano-N-[2,2-diethyl-4-(ethylthio)butyl]-4′,5-bis(trifluoromethyl)-(1,1′-biphenyl)-4-ca rboxamide]", "values": [
      {"measurement": "mortality at 125 ppm", "setting": "Tetranychus urticae", "value": "≥ 90", "unit": "%"},
      {"measurement": "mortality at 125 ppm", "setting": "Tetranychus kanzawai", "value": "≥ 90", "unit": "%"}
    ]},
    {"molecule": "CCSCC(C)(C)CNC(=O)c1cc(C#N)c(-c2ccc(C(F)(F)F)cc2)nc1C", "note": "[A-147, 5-Cyano-N-[3-(ethylthio)-2,2-dimethylpropyl]-2-methyl-6-[4-(trifluoromethyl)phenyl]ni cotinamide]", "values": [
      {"measurement": "mortality at 125 ppm", "setting": "Tetranychus urticae", "value": "≥ 90", "unit": "%"},
      {"measurement": "mortality at 125 ppm", "setting": "Tetranychus kanzawai", "value": "≥ 90", "unit": "%"}
    ]},
    {"molecule": "CCSCCC(CC)(CC)CNC(=O)c1cc(C#N)c(-c2ccc(OC(F)(F)F)cc2OC)nc1C", "note": "[A-27]", "values": [
      {"measurement": "Insecticidal rate against Mythimna separata", "setting": "Mythimna separata", "value": 90, "unit": "%"}
    ]},
    {"molecule": "CCSCCC(CC)(CC)CNC(=O)c1cc(C#N)c(-c2ccc(C(F)(F)F)cc2)nc1C", "note": "[A-78, 5-Cyano-N-[2,2-diethyl-4-(ethylthio)butyl]-2-methyl-6-[4-(trifluoromethyl)phenyl]nicoti namide]", "values": [
      {"measurement": "mortality at 125 ppm", "setting": "Tetranychus urticae", "value": "≥ 90", "unit": "%"},
      {"measurement": "mortality at 125 ppm", "setting": "Tetranychus kanzawai", "value": "≥ 90", "unit": "%"}
    ]},
    {"molecule": "CCSCC(C)(C)CN(C)C(=O)c1cc(C#N)c(-c2ccc(C(F)(F)F)cc2)nc1C", "note": "[A-146, 5-Cyano-N-[3-(ethylthio)-2,2-dimethylpropyl]-N,2-dimethyl-6-[4-(trifluoromethyl)pheny 1]nicotinamide]", "values": [
      {"measurement": "mortality at 125 ppm", "setting": "Tetranychus urticae", "value": "≥ 90", "unit": "%"},
      {"measurement": "mortality at 125 ppm", "setting": "Tetranychus kanzawai", "value": "≥ 90", "unit": "%"}
    ]},
    {"molecule": "CCSCCC(C)(C)CN(C)C(=O)c1cc(C#N)c(-c2ccc(C(F)(C(F)(F)F)C(F)(F)F)cc2)nc1C", "note": "[A-105]", "values": [
      {"measurement": "Insecticidal rate against Mythimna separata", "setting": "Mythimna separata", "value": 90, "unit": "%"}
    ]}
  ]
}
